Experimental data taken from patent US10828344B2, “Antimicrobial yeast preparation and methods for preparation and use thereof” (priority 2016, dated 2020).
Marks after values point to notes of the source that are not given here.

Legend:
[1] = test system: Salmonella enterica ATCC 8759; assay: Minimal Inhibitory Concentration test (OD) with bactericidal/static check; assay type: cell-based; settings: 0 CFU/ml needed for bactericidal
Protocol: (§1) Sterile, 12×75 mm plastic test tubes were used to perform the test. 1 mL of the test compositions were placed in the appropriate labeled tubes. 1 mL of each adjusted bacterial inoculum was added to each appropriate labeled tube in the dilution series and mixed. The tubes were closed with loose caps. The tubes were then incubated at 37° C. for 24 hours with the exception of the Campylobacter tubes, which were incubated microaerophilically at 42° C. for 48 hours. At the end of the incubation phases the tubes were examined for turbidity. All optically clear tubes were plated to agar plates to determine if the test article was bactericidal or bacteriostatic. A product was considered to be “bactericidal” if less than 3 CFU were detected (Clear tubes with a few CFU), and “bacteriostatic” if greater the 3 CFU were detected (Clear tubes and growth detected).
(§2) The tubes were examined for turbidity, indicating growth of the organism. […] The lowest concentration of the agent that inhibits growth of the organism, as detected by lack of visual turbidity (matching the negative control) was designated the minimum inhibitory concentration (MIC).
(§3) Additional experiments were performed to determine bactericidal and bacteriostatic effects of preparation made from wine lees from different varietals, effects of aging of preparations on bactericidal and bacteriostatic effectiveness, and to compare effectiveness to conventional antibiotic treatment. Methods were as described above for testing bacteriostatic and bactericidal effects. Preparations were tested against Salmonella enterica (ATCC 8759) and E. coli 0157:H7 (ATCC 700728).
(§4) The following preparations were tested: a lees preparation from Chardonnay grapes that had not been enzymatically treated and had been prepared approximately 2 months before testing (CH16), a lees preparation from Pinot Noir grapes that had not been enzymatically treated and had been prepared approximately 14 months before testing (PNC15), a lees preparation from Pinot Noir grapes that had not been enzymatically treated and had been prepared approximately 2 months before testing (PNC16), a lees preparation from Cabernet Franc grapes that had been enzymatically treated and had been prepared approximately 2 months before testing (CFE16), CELMANAX™ (SCP) (hydrolyzed yeast), and salinomycin, 0.005% solution (antibiotic).

[2] = test system: Escherichia coli 0157:H7 ATCC 700728; assay: as above; assay type: cell-based; settings: for Bactericidal or Static check of optically clear MIC tubes, Escherichia coli 0157:H7 ATCC 700728: 0 CFU/ml needed for bactericidal
Protocol: as §1, §2, §3, §4

[3] = test system: Cryptosporidium oocytes; assay: In vivo calf study: fecal shedding of Cryptosporidium oocytes; set-up: species or system Cryptosporidium (in Holstein calves)
Protocol: (§5) An in vivo study was performed to compare effects of lees-based preparations as disclosed herein to conventional commercially available product yeast fermentation product and Decoquinate on performance and health of neonatal Holstein calves. […] PNC16 was compared with CELMANAX™ (SCP) (hydrolyzed yeast) and an antibiotic, DECCOX®-M manufactured by Zoetis Inc., Decoquinate.
(§6) The study was conducted at Spruce Haven Farms, Union Springs, N.Y., a commercial dairy consisting of 1,800 mature cows. There were thirty calf hutches available to conduct the trial that were aligned in one row. The study consisted of thirty female Holstein calves. As calves were born they were successively placed on one of four treatments until 28 calves were assigned, then the remaining 2 calves were assigned to treatment 2 and 3 respectively.
(§7) Fecal samples (˜10-20 g) were obtain via digital stimulation from each calf on day 7, 14 and 21 of life. Samples were sent to the Cornell Diagnostic Laboratory for zinc sulfate floatation to determine type and degree of fecal shedding. Body temperatures were take just prior to fecal collections on day 7, 14 and 21 of life. Fecal consistency scores: were recorded for each calf daily using the following scale: 1=soft, solid consistency, no fluid, 2=semi-solid, mostly solid, 3=runny: semi solid, mostly fluid, 4=watery, all fluid 5=watery with blood.

[4] = In vivo calf study: body weight gain; set-up: species or system Holstein calves
Protocol: An in vivo study was performed to compare effects of lees-based preparations as disclosed herein to conventional commercially available product yeast fermentation product and Decoquinate on performance and health of neonatal Holstein calves. Lees was prepared as described above (a lees preparation from Pinot Noir grapes that had not been enzymatically treated and had been prepared approximately 6 months before testing (PNC16)). PNC16 was compared with […]) (hydrolyzed yeast) and an antibiotic, DECCOX®-M manufactured by Zoetis Inc., Decoquinate. The study was conducted at Spruce Haven Farms, Union Springs, N.Y., a commercial dairy consisting of 1,800 mature cows. There were thirty calf hutches available to conduct the trial that were aligned in one row. The study consisted of thirty female Holstein calves. As calves were born they were successively placed on one of four treatments until 28 calves were assigned, then the remaining 2 calves were assigned to treatment 2 and 3 respectively. […] Calves were housed in fiberglass hutches (4'×8') with an outside run (4'×6') with straw bedding inside the hutch. Within 2 hr. of birth, calves were offered 4 lb. of colostrum. Thereafter, pasteurized whole milk was offered twice daily (08:00 and 16:00 h) and water and dry calf starter was available at all times in removable buckets. During the morning feeding the liquid (CEL or PNC16) or dry (22.7 mg) test articles were dissolved in the milk. Calves body weights were recorded when moved into the hutches and again at 21 d of life.

[5] = In vivo calf study: hematology and haptoglobin; set-up: species or system Holstein calves; settings: 10 day old calves
Protocol: An in vivo study was performed to compare effects of lees-based preparations as disclosed herein to conventional commercially available product yeast fermentation product and Decoquinate on performance and health of neonatal Holstein calves. Lees was prepared as described above (a lees preparation from Pinot Noir grapes that had not been enzymatically treated and had been prepared approximately 6 months before testing (PNC16)). PNC16 was compared with […]) (hydrolyzed yeast) and an antibiotic, DECCOX®-M manufactured by Zoetis Inc., Decoquinate. The study was conducted at Spruce Haven Farms, Union Springs, N.Y., a commercial dairy consisting of 1,800 mature cows. There were thirty calf hutches available to conduct the trial that were aligned in one row. The study consisted of thirty female Holstein calves. As calves were born they were successively placed on one of four treatments until 28 calves were assigned, then the remaining 2 calves were assigned to treatment 2 and 3 respectively. […] Blood samples were collected via jugular vein-puncture before the pm milk feeding on day 10 of life. Samples were collected in heparinized vacutainers. Whole blood was analyzed for hematology: red blood count, hematocrit, hemoglobin, mean cell volume, mean cell hemoglobin, mean cell hemoglobin concentration, red cell distribution width, reticulocyte, white blood cell: neutrophil, lymphocyte, monocyte, eosinophil, basophil, platelet, mean platelet volume, platelet, distribution width and procalcitonin. Plasma was obtained by centrifugation at 1,500×g for 15 min. Plasma samples were frozen (-40° C.) and shipped to the Michigan State University (DCPAH) laboratory for haptoglobin analysis.

[6] = In vivo calf study: rectal temperature and fecal consistency score; set-up: species or system Holstein calves
Protocol: as §5, §6, §7

[7] = test system: Eimeria species; assay: In vivo calf study: fecal shedding of Eimeria species; set-up: species or system Eimeria (in Holstein calves); settings: day 21 of age (FIG. 4); Control 71.5%
Protocol: as §5, §6, §7

[8] = test system: cryptosporidiosis; settings: Moore (2003); cited from earlier work
[9] = 20 Mg/ml (ABX: salinomycin 0.005% solution)
[10] = 40 Mg/ml (ABX: salinomycin 0.005% solution)

With CC[C@@H](C(=O)[C@@H](C)[C@@H](O)[C@H](C)[C@@H]1O[C@@H]([C@@H](CC)C(=O)O)CC[C@@H]1C)[C@H]1O[C@]2(C=C[C@@H](O)[C@]3(CC[C@@](C)([C@H]4CC[C@](O)(CC)[C@H](C)O4)O3)O2)[C@H](C)C[C@@H]1C [ABX, salinomycin] the “Bactericidal or Static check of optically clear MIC tubes, Salmonella enterica ATCC 8759” value [1, 9] was 50,000 CFU/ml, the “Bactericidal or Static check of optically clear MIC tubes, Salmonella enterica ATCC 8759” value [1, 10] was 50,000 CFU/ml and the “Turbidity Reading (OD), Escherichia coli 0157:H7 ATCC 700728” value [2] was “.075^c OD”. For the same compound, the “Bactericidal or Static check of optically clear MIC tubes, Escherichia coli 0157:H7 ATCC 700728” value [2, 9] was 950 CFU/ml and the “Bactericidal or Static check of optically clear MIC tubes, Escherichia coli 0157:H7 ATCC 700728” value [2, 10] was 950 CFU/ml.

With CCCCCCCCCCOc1cc2c(O)c(C(=O)OCC)cnc2cc1OCC [DECCOX ®, Decoquinate] the “Cryptosporidium Oocytes/g of feces” value ([3]; Day 1, Control 0) was 0 Oocytes/g of feces, the “% of calves shedding Cryptosporidium oocytes” value ([3]; Day 1, Control 0.0) was 0.0% and the “% of calves shedding Cryptosporidium oocytes” value ([3]; Day 7, Control 71.4) was 28.6%. For the same compound, the “Cryptosporidium Oocytes/g of feces” value ([3]; Day 7, Control 85638) was 2^b Oocytes/g of feces, the “% of calves shedding Cryptosporidium oocytes” value ([3]; Day 14, Control 85.0) was 100.0% and the “Cryptosporidium Oocytes/g of feces” value ([3]; Day 14, Control 14153) was 209473^a Oocytes/g of feces. The “% of calves shedding Cryptosporidium oocytes” value ([3]; Day 21, Control 28.6) was 28.6%, the “Cryptosporidium Oocytes/g of feces” value ([3]; Day 21, Control 368) was 11^b Oocytes/g of feces and the Birth wt ([4]; baseline at birth, Control 40.4) was 40.2 kg. The Body wt gain ([4]; birth through day 21, Control 6.8) was 7.3 kg, the ADG ([4]; birth through day 21, Control .32) was “.35 kg/day” and the “Day 21 wt” value ([4]; day 21 of life, Control 47.1) was 47.6^b kg. The “Basophil (Baso)” value ([5]; Control 0.01) was 0.00 K/ul, the “Monocyte (Mono)” value ([5]; Control 0.02) was 0.05 K/ul and the “Eosinophil (Eosin)” value ([5]; Control 0.03) was 0.08 K/ul. The “Neutrophil (NEUT)” value ([5]; Control 3.7) was 5.1 K/ul, the “Lymphocyte (LYMPH)” value ([5]; Control 4.2) was 2.4 K/ul and the “Mean Platelet Volume (MPV)” value ([5]; Control 5.5) was 5.6 fL. For the same compound, the “Platelet Distribution Width (PDW)” value ([5]; Control 6.34) was 7.72^a fL, the “Reticulocyte (Ret)” value ([5]; Control 7.13) was 1.49^b K/ul and the “Red Blood Count (RBC)” value ([5]; Control 7.4) was 7.1 M/uL. For the same compound, the “White Blood Cell (WBC)” value ([5]; Control 7.96) was 7.67^b K/ul, the “Hemoglobin (HBG)” value ([5]; Control 9.4) was 8.9 g/dL and the “Mean Cell Hemoglobin (MCH)” value ([5]; Control 12.6) was 12.4 pg. The “Hematocrit (HCT)” value ([5]; Control 29.8) was 28.5%, the “Red Cell Distribution Width (RDW)” value ([5]; Control 31.4) was 30.7% and the “Mean Cell Hemoglobin Concentration (MCHC)” value ([5]; Control 31.5) was 31.4 g/dL. For the same compound, the “Mean Cell Volume (MCV)” value ([5]; Control 40.0) was 39.8 fL, the “Platelet (Plt)” value ([5]; Control 654.7) was 579.8^b K/ul and the “Neutrophil/Lymphocyte Ratio (NLR)” value ([5]; Control .87) was 2.11^a. The “Percentages Baso” value ([5]; percent of white cells, Control 0.19) was 0.00%, the “Percentages Mono” value ([5]; percent of white cells, Control 0.21) was 0.63% and the “Percentages Eosin” value ([5]; percent of white cells, Control 0.34) was 0.98%. For the same compound, the “Percentages Neutrophil” value ([5]; percent of white cells, Control 48.38) was 66.63^a %, the “Percentages Lymphocyte” value ([5]; percent of white cells, Control 50.87) was 31.75^b % and the “Haptoglobin (Hp)” value ([5]; plasma, Control 24.13) was 64.5 µg/mL. The “Fecal consistency score (FCS)” value ([6]; between day 12 and 17 d of life, scale 1-5, Control 2.3) was 2.4, the Rectal temperature ([6]; day 14, comparison in words) was “higher (p<005) than PNC16” and the “Percent of calves shedding Eimeria” value [7] was 0%. The “clinical benefit as preventative treatment for cryptosporidiosis” value [8] was “no clinical benefit”.
